ChEMBL document CHEMBL5143510, “Structure modification and biological evaluation of indole-chalcone derivatives as anti-tumor agents through dual targeting tubulin and TrxR” (Eur J Med Chem, 2022)
pIC50: −log10 of the molar value. The source made the active and inactive calls. No cut-off for these calls is given here.

What was measured:
[1] = system: HCT-8/VCR; assay: Downregulation of TrxR in vincristine resistant human HCT-8/VCR cells at 10 to 50 nM incubated for 48 hrs by Western blot analysis; format: functional, cell-based; settings: dose 10-50 nM
[2] = Selectivity ratio, ratio of IC50 for cytotoxicity against human HUVEC cells to IC50 for antiproliferative activity against human MHCC97H cells; format: toxicity, cell-based; settings: HUVEC cells versus MHCC97H cells, read-out: Ratio IC50
[3] = system: NCI/ADR-RES; assay: Antiproliferative activity against adriamycin resistant human MCF7/ADR cells assessed as reduction in cell viability incubated for 48 hrs by MTT assay; format: functional, cell-based
[4] = system: MHCC97H; assay: Induction of morphological changes in human MHCC97H cells assessed as membrane blebbing at 5 to 50 nM incubated for 48 hrs by phase contrast microscopic analysis; format: functional, cell-based; settings: dose 5-50 nM
[5] = target: T1, Tubulin (Homo sapiens) (UniProt P68371+Q9H4B7+P0DPH7+P68366+Q13509+Q71U36+P04350+Q3ZCM7+P07437+P68363+Q9BQE3+Q6PEY2+Q13885+Q9BVA1+Q9BUF5); assay: Inhibition of colchicine binding to tubulin (unknown origin) at 1.25 uM by competitive binding assay relative to control; format: protein-complex assay
[6] = target: T1, Tubulin (Homo sapiens); assay: Disruption of microtubule network in human MHCC97H cells assessed as dotted morphology at 5 to 50 nM incubated for 24 hrs by Hoechst 33342 staining based confocal microscopy; format: cell-based; settings: dose 5-50 nM
[7] = system: MHCC97H; assay: Induction of cell cycle arrest in human MHCC97H cells assessed as increase in accumulation of cells at G2/M phase at 5 to 50 nM measured after 48 hrs by propidium iodide staining based flow cytometry; format: functional; settings: dose 5-50 nM
[8] = system: MHCC97H; assay: Induction of apoptosis in human MHCC97H cells assessed as chromatin condensation at 5 to 50 nM incubated for 24 hrs by Hoechst 33342 staining based fluorescence microscopy; format: functional, cell-based; settings: dose 5-50 nM
[9] = Selectivity ratio, ratio of IC50 for cytotoxicity against human HLF cells to IC50 for antiproliferative activity against human MHCC97H cells; format: toxicity, cell-based; settings: HLF cells versus MHCC97H cells, read-out: Ratio IC50
[10] = target: T1, Tubulin (Homo sapiens); assay: Inhibition of colchicine binding to tubulin (unknown origin) at 10 uM by competitive binding assay relative to control; format: protein-complex assay
[11] = system: MHCC97H; assay: Antitumor activity against human MHCC97H cells xenografted in BALB/c mouse assessed as tumor growth inhibition at 30 mg/kg, ip administered every other day for 30 days; format: functional; settings: 720 h, time 30 day, read-out: TGI
[12] = organism: Homo sapiens; assay: Mixed type inhibition of TrxR (unknown origin) using various concentrations of DTNB as substrate at 1.875 to 15 uM preincubated for 15 mins followed by substrate addition by double reciprocal Lineweaver-Burk plot analysis; settings: dose 1.875-15 µM
[13] = target: T1, Tubulin (Homo sapiens); assay: Inhibition of colchicine binding to tubulin (unknown origin) at 0.156 uM by competitive binding assay relative to control; format: protein-complex assay
[14] = target: T1, Tubulin (Homo sapiens); assay: Disruption of microtubule network in human MHCC97H cells assessed as shrunken morphology at 5 to 50 nM incubated for 24 hrs by Hoechst 33342 staining based confocal microscopy; format: cell-based; settings: dose 5-50 nM
[15] = system: MHCC97H; assay: Induction of cell cycle arrest in human MHCC97H cells assessed as decrease in accumulation of cells at G1 phase at 5 to 50 nM measured after 48 hrs by propidium iodide staining based flow cytometry; format: functional; settings: dose 5-50 nM
[16] = system: HCT-8; assay: Antiproliferative activity against human HCT-8 cells assessed as reduction in cell viability incubated for 48 hrs by MTT assay; format: functional, cell-based; settings: HCT-8, 48 h
[17] = target: Tubulin; assay: Inhibition of colchicine binding to tubulin (unknown origin) by competitive binding assay; format: protein-complex assay, Homo sapiens
[18] = organism: Homo sapiens; assay: Inhibition of TrxR (unknown origin) assessed as alkylation of TrxR by measuring weak band intensity using BIAM as substrate at 10 to 40 uM preincubated for 2 hrs in presence of NADPH followed by substrate addition and measured after 30 mins by Western blot analysis; settings: dose 10-40 µM, time 2.5 hrs
[19] = Cytotoxicity against human MCF-10A cells assessed as reduction in cell viability incubated for 48 hrs by MTT assay; format: toxicity, cell-based
[20] = target: T1, Tubulin (Homo sapiens); assay: Inhibition of colchicine binding to tubulin (unknown origin) at 0.312 uM by competitive binding assay relative to control; format: protein-complex assay
[21] = Resistance index, ratio of IC50 for antiproliferative activity against adriamycin resistant human MCF7/ADR cells to IC50 for antiproliferative activity against human MCF7 cells; format: functional
[22] = Cytotoxicity against human L02 cells assessed as reduction in cell viability incubated for 48 hrs by MTT assay; format: toxicity, cell-based
[23] = target: T1, Tubulin (Homo sapiens); assay: Inhibition of colchicine binding to tubulin (unknown origin) at 0.625 uM by competitive binding assay relative to control; format: protein-complex assay
[24] = target: T1, Tubulin (Homo sapiens); assay: Induction of microtubule disruption in human MHCC97H cells assessed as occurence of cell shrinkage at 10 nM measured after 8 hrs by immunofluorescence based confocal microscopic analysis
[25] = system: MHCC97H; assay: Induction of apoptosis in human MHCC97H cells assessed as downregulation of Bcl-2 expression at 5 to 50 nM measured after 24 to 48 hrs by Western blot analysis; format: functional, cell-based; settings: dose 5-50 nM, time 24-48 hrs
[26] = system: MHCC97H; assay: Induction of apoptosis in human MHCC97H cells assessed as upregulation of Bax expression measured after 24 to 48 hrs by Western blot analysis; format: functional, cell-based; settings: dose 5-50 nM, time 24-48 hrs, DDE = dose-dependent effect
[27] = system: NCI/ADR-RES; assay: Downregulation of TrxR in adriamycin resistant human MCF7/ADR cells at 10 to 50 nM incubated for 48 hrs by Western blot analysis; format: functional, cell-based; settings: dose 10-50 nM
[28] = Inhibition of TrxR in human MHCC97H cells using DTNB as substrate preincubated for 4 hrs in presence of NADPH followed by substrate addition by microplate reader analysis; format: cell-based
[29] = system: A549; assay: Antiproliferative activity against human A549 cells assessed as reduction in cell viability incubated for 48 hrs by MTT assay; format: functional, cell-based; settings: A549, 48 h
[30] = system: MHCC97H; assay: Induction of morphological changes in human MHCC97H cells assessed as loss of adherent property at 5 to 50 nM incubated for 48 hrs by phase contrast microscopic analysis; format: functional, cell-based; settings: dose 5-50 nM
[31] = Selectivity ratio, ratio of IC50 for cytotoxicity against human MCF-10A cells to IC50 for antiproliferative activity against human MHCC97H cells; format: toxicity, cell-based; settings: MCF-10A cells versus MHCC97H cells, read-out: Ratio IC50
[32] = system: HUVEC; assay: Induction of morphological changes in human HUVEC cells assessed as cell shrinkage at 50 nM incubated for 48 hrs by phase contrast microscopic analysis; format: toxicity, cell-based; settings: 0.05 µM
[33] = system: MHCC97H; assay: Induction of morphological changes in human MHCC97H cells assessed as cell rounding at 5 to 50 nM incubated for 48 hrs by phase contrast microscopic analysis; format: functional, cell-based; settings: dose 5-50 nM
[34] = system: MHCC97H; assay: Induction of apoptosis in human MHCC97H cells assessed as decrease in MMP level incubated for 24 hrs by JC-1 staining based flow cytometry; format: functional, cell-based; settings: dose 5-50 nM, DDE = dose-dependent effect

COc1ccc2c(/C=C(\C)C(=O)c3cc(OC)c(OC)c([Se]C)c3)c[nH]c2c1
Activity [1]: Active
selectivity ratio [2]: 9.33
pIC50 [3]: 7.74
Activity [4]: Active
inhibition [5]: 56.5%
Activity [6]: Active
Activity [7]: Active
Activity [8]: Active
selectivity ratio [9]: 394
inhibition [10]: 94.4%
inhibition in vivo at 30 mg/kg [11]: 75.4%
inhibition [12]: Active
inhibition [13]: 24.9%
Activity [14]: Active
Activity [15]: Active
pIC50 [16]: 7.54
pIC50 [17]: 5.89
inhibition [18]: Active
IC50 at 48 h [19]: 723 nM
inhibition [20]: 30.7%
Ratio IC50 [21]: 0.51
IC50 at 48 h [22]: 398 nM
inhibition [23]: 45%
Activity [24]: Active
Activity [25]: Active
Activity [26]: Dde
Activity [27]: Active
pIC50 [28]: 4.99
pIC50 [29]: 8.10
Activity [30]: Active
selectivity ratio [31]: 121
Activity [32]: Toxic
Activity [33]: Active
Activity [34]: Dde
